Marks after values point to notes of the source that are not given here.
Assays:
Assay type in all cases: in vivo
Lepr db mouse = experiment: OGT (1 g glucose/kg) combined with oral administration of the active ingredient; postprandial glucose and insulin; design: Serum insulin levels: unit not given here; conditions: for Serum glucose levels: in mg/dL (unit assumed)
Protocol: Acute effects of a nutritional formula, Starlix® and 4-HI on glycemic control in the type 2 diabetes animal model (Lepr db mouse) were studied. Animals underwent an OGT (1 g glucose/kg) combined with oral administration of the active ingredient. The following groups were tested: (A) placebo (2% Tween 80, 20 ml/kg), (B) 4-HI (100 mg/kg), (C) guar gum (150 mg/kg), (D) Starlix® (65 mg/kg), (E) Starlix®+4-HI, and (F) Starlix®+guar gum. Postprandial glucose and insulin were studied at 0, 30, 60 and 90 min.

Lepr db/db mice [1] = experiment: Fasting plasma lipids (TG, TC) in Lepr db/db mice fed different fatty acids; conditions: after diet feeding
Protocol: (§1) C57BLKS/J-Lepr^db/db male mice (4 wks of age) were obtained from Jackson Laboratory, Bar Harbor, Me. Mice were initially maintained on commercial chow for 2 wks, followed by a purified stabilization diet providing 40% en as fat and 2% en as linoleic acid (LA, 18:2n-6) for another 2 wks. At 8 wks of age, a baseline oral glucose tolerance test was conducted. Based on their OGTT profile, mice were evenly distributed among 6 groups (n=6 per each group) and were fed one of 6 experimental diets designed to establish the relative importance of specific fatty acid supplementation on ameliorating insulin resistance.
(§2) Table 1 gives the predicted fatty acid profile (% en) for the 6 experimental diets. The control diet, based on butter and palm oil blend, provided 40% en as fat with 2% en as LA. […] These Lepr db/db mice were fed one of the above 6 diets for 6 weeks.
(§3) Body weights of animals were recorded each week. Insulin tolerance testing was performed after 6 weeks of dietary intervention. Mice (non-fasted) were injected intraperitoneally with 1.5 U/kg human insulin and blood glucose concentrations were determined at 0, 15, 30 and 60 min after insulin injection by tail bleeding, using a glucometer. A week later, fasting blood samples were collected by cardiac puncture, under Co2/O2 anesthesia, for analysis of plasma insulin, triglyceride (TG) and total cholesterol (TC). […] Plasma insulin was determined using the RIA kit (Linco research Inc, MO).

Lepr db/db mice [2] = experiment: Insulin tolerance testing (blood glucose after i.p. human insulin) after 6 weeks of dietary intervention; conditions: 1.5 U/kg human insulin i.p.
Protocol: as §1, §2, §3

[3] = Body weight and weight gain of Lepr db/db mice fed different fatty acid diets for 6 wks; conditions: for Body wt at 6 wks: 6 wks after dietary intervention; for Wt gain at 6 wks: 6 wks of diet
Protocol: as §1, §2, §3

Row | SMILES | Serum insulin levels (Lepr db mouse; 0 min of OGT) | Serum glucose levels (Lepr db mouse; 0 min of OGT) | Serum insulin levels (Lepr db mouse; 30 min of OGT) | Serum glucose levels (Lepr db mouse; 30 min of OGT) | Serum insulin levels (Lepr db mouse; 60 min of OGT) | Serum glucose levels (Lepr db mouse; 60 min of OGT) | Serum insulin levels (Lepr db mouse; 90 min of OGT) | Serum glucose levels (Lepr db mouse; 90 min of OGT) | Hypoglycemic effect, in words (Lepr db mouse; serum glucose in OGT) | Fasting plasma TC (Lepr db/db mice [1]) | Fasting plasma TG (Lepr db/db mice [1]) | Mean blood glucose values (percentage of intial) after insulin administration (Lepr db/db mice [2]; 0 min, non-fasted) | Mean blood glucose values (percentage of intial) after insulin administration (Lepr db/db mice [2]; 15 min) | Mean blood glucose values (percentage of intial) after insulin administration (Lepr db/db mice [2]; 30 min) | Mean blood glucose values (percentage of intial) after insulin administration (Lepr db/db mice [2]; 60 min) | Body wt at 6 wks [3] [g] | Wt gain at 6 wks [3] [g]
1 | C[C@@H]([C@H](C)O)[C@H](N)C(=O)O [4HI, 4-hydroxyisoleucine] | 8.17 | 227.7 | 11.27 | 473.7 | 6.41 | 494.7 | 4.63 | 584 |  |  |  |  |  |  |  |  | 
2 | CC(C)[C@H]1CC[C@H](C(=O)N[C@H](Cc2ccccc2)C(=O)O)CC1 [Starlix, nateglinide] | 9.8 | 210 | 11.18 | 456.7 | 5.38 | 497.3 | 3.75 | 599 | significant hypoglycemic effect at T90 |  |  |  |  |  |  |  | 
3 | CC/C=C\C/C=C\C/C=C\C/C=C\C/C=C\C/C=C\CCC(=O)O [DHA, docosahexaenoic acid] |  |  |  |  |  |  |  |  |  | 288 ± 39 ^ mg/dl | 101 ± 14^a,c mg/dl | 100 percentage of intial | 131 percentage of intial | 120 percentage of intial | 99 percentage of intial | 48.9 ± 3.8 | 6.1 ± 5.2
4 | CCCCC/C=C\C/C=C\CCCCCCCC(=O)O [LA, linoleic acid] |  |  |  |  |  |  |  |  |  | 313 ± 28 ^ mg/dl | 120 ± 24^a,b mg/dl | 100 percentage of intial | 135 percentage of intial | 115 percentage of intial | 85 percentage of intial | 43.9 ± 5.4 | 2.5 ± 4.3
5 | CC/C=C\C/C=C\C/C=C\CCCCCCCC(=O)O [LNA, linolenic acid] |  |  |  |  |  |  |  |  |  | 326 ± 13^ mg/dl | 142 ± 27^b mg/dl | 100 percentage of intial | 138 percentage of intial | 127 percentage of intial | 100 percentage of intial | 50.5 ± 2.4 | 8.3 ± 4
